Consider eleven molecules from patent publication US12552783B2, “Modulators of proteolysis and associated methods of use” (Arvinas Operations, Inc., priority 2018, dated 2026).

In this experiment the target is KRas (Homo sapiens, UniProt P01116, G12C). Kind of experiment: KRas degradation in NCI-H2030 cells by Western blot, normalized to GAPDH (data of Table 14). It counts as cell-based. Details: host or cells: NCI-H2030. The note with it: for Dmax: NCI-H2030. In short, it runs like this: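 Cells plated overnight, switched to FBS-free medium for 24 h, then treated (0.3, 1, 3 μM final; 0.1% DMSO) for 24 h if VHL-based, otherwise 72 h. RIPA lysates (10 μg protein) blotted for KRas, signal normalized to GAPDH and compared with DMSO.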
On the technique in general: In western blotting, separated proteins are transferred to a membrane and probed.

Turning to `C=CC(=O)N1CCN(c2nc(NCCC(=O)N(C)CCOCCOCCOCCOCCOc3cc(-c4scnc4C)ccc3CNC(=O)[C@@H]3C[C@@H](O)CN3C(=O)[C@H](c3cc(C)no3)C(C)C)nc3c(F)c(-c4cc(O)cc5ccccc45)c(Cl)cc23)CC1` [compound 346, (2S,4R)-N-(2-((18-((4-(4-acryloylpiperazin-1-yl)-6-chloro-8-fluoro-7-(3-hydroxynaphthalen-1-yl)quinazolin-2-yl)amino)-15-methyl-16-oxo-3,6,9,12-tetraoxa-15-azaoctadecyl)oxy)-4-(4-methylthiazol-5-yl)benzyl)-4-hydroxy-1-((S)-3-methyl-2-(3-methylisoxazol-5-yl)butanoyl)pyrrolidine-2-carboxamide], the Dmax is no more than 35%. Under “H2030, 0.3 μM”, the “Percent Degradation at Indicated Concentration (μM)” value (“Percent Degradation” below) is on record as “C (Percent Degradation: C ≤ 35)”. For the same molecule, the “Percent Degradation” value (H2030, 1 μM) is on record as “C (Percent Degradation: C ≤ 35)”. For the same molecule, the “Percent Degradation” value (H2030, 3 μM) is “C (Percent Degradation: C ≤ 35)”.

Regarding `Cc1ncsc1-c1ccc([C@H](C)NC(=O)[C@@H]2C[C@@H](O)CN2C(=O)[C@@H](NC(=O)COCC/C=C/C(=O)N2CCN(c3nc(NCCC(=O)N(C)C)nc4c(F)c(-c5cc(O)cc6ccccc56)c(Cl)cc34)CC2)C(C)(C)C)cc1` [compound 363, (2S,4R)-1-((2S)-2-(2-(((E)-5-(4-(6-chloro-2-((3-(dimethylamino)-3-oxopropyl)amino)-8-fluoro-7-(3-hydroxynaphthalen-1-yl)quinazolin-4-yl)piperazin-1-yl)-5-oxopent-3-en-1-yl)oxy)acetamido)-3,3-dimethylbutanoyl)-4-hydroxy-N-((S)-1-(4-(4-methylthiazol-5-yl)phenyl)ethyl)pyrrolidine-2-carboxamide], the Dmax was no more than 35%. Also, the “Percent Degradation” value (H2030, 0.3 μM) is on record as “C (Percent Degradation: C ≤ 35)”. Besides, the “Percent Degradation” value (H2030, 1 μM) is “C (Percent Degradation: C ≤ 35)”. Further, the “Percent Degradation” value (H2030, 3 μM) was “C (Percent Degradation: C ≤ 35)”.

As for `Cc1ncsc1-c1ccc([C@H](C)NC(=O)[C@@H]2C[C@@H](O)CN2C(=O)[C@@H](NC(=O)COCCOCCOCCOCC/C=C/C(=O)N2CCN(c3nc(NCCC(=O)N(C)C)nc4c(F)c(-c5cc(O)cc6ccccc56)c(Cl)cc34)CC2)C(C)(C)C)cc1` [compound 366], the Dmax is no more than 35%. Also, the “Percent Degradation” value (H2030, 0.3 μM) is on record as “C (Percent Degradation: C ≤ 35)”. The “Percent Degradation” value (H2030, 1 μM) is “C (Percent Degradation: C ≤ 35)”. The “Percent Degradation” value (H2030, 3 μM) is listed as “C (Percent Degradation: C ≤ 35)”.

As to `Cc1ncsc1-c1ccc([C@H](C)NC(=O)[C@@H]2C[C@@H](O)CN2C(=O)[C@@H](NC(=O)COCCOCC/C=C/C(=O)N2CCN(c3ncnc4c(F)c(-c5cc(O)cc6ccccc56)c(Cl)cc34)CC2)C(C)(C)C)cc1` [compound 373, (2S,4R)-1-((2S)-2-(2-(2-(((E)-5-(4-(6-chloro-8-fluoro-7-(3-hydroxynaphthalen-1-yl)quinazolin-4-yl)piperazin-1-yl)-5-oxopent-3-en-1-yl)oxy)ethoxy)acetamido)-3,3-dimethylbutanoyl)-4-hydroxy-N-((S)-1-(4-(4-methylthiazol-5-yl)phenyl)ethyl)pyrrolidine-2-carboxamide], the Dmax was no more than 35%. For the same molecule, the “Percent Degradation” value (H2030, 0.3 μM) is recorded as “C (Percent Degradation: C ≤ 35)”. Also, the “Percent Degradation” value (H2030, 1 μM) was “C (Percent Degradation: C ≤ 35)”. Further, the “Percent Degradation” value (H2030, 3 μM) was “C (Percent Degradation: C ≤ 35)”.

As to `Cc1ncsc1-c1ccc([C@H](C)NC(=O)[C@@H]2C[C@@H](O)CN2C(=O)[C@@H](NC(=O)COCCOCCOCCOCC/C=C/C(=O)N2CCN(c3ncnc4c(F)c(-c5cc(O)cc6ccccc56)c(Cl)cc34)CC2)C(C)(C)C)cc1` [compound 375, (2S,4R)-1-((2S,E)-2-(tert-butyl)-20-(4-(6-chloro-8-fluoro-7-(3-hydroxynaphthalen-1-yl)quinazolin-4-yl)piperazin-1-yl)-4,20-dioxo-6,9,12,15-tetraoxa-3-azaicos-18-enoyl)-4-hydroxy-N-((S)-1-(4-(4-methylthiazol-5-yl)phenyl)ethyl)pyrrolidine-2-carboxamide], the Dmax was no more than 35%. In addition, the “Percent Degradation” value (H2030, 0.3 μM) is on record as “C (Percent Degradation: C ≤ 35)”. The “Percent Degradation” value (H2030, 1 μM) is recorded as “C (Percent Degradation: C ≤ 35)”. Also, the “Percent Degradation” value (H2030, 3 μM) is given as “C (Percent Degradation: C ≤ 35)”.

For the molecule `COc1cc(-c2scnc2C)ccc1[C@H](C)NC(=O)[C@@H]1C[C@@H](O)CN1C(=O)[C@@H](c1cc(OCCOCCOCCOCCOCCN(C)C(=O)CCNc2nc(N3CCN(C(C)=O)CC3)c3cc(Cl)c(-c4cc(O)cc5ccccc45)c(F)c3n2)no1)C(C)C` [compound 391, (2S,4R)-1-((2R)-2-(3-((18-((4-(4-acetylpiperazin-1-yl)-6-chloro-8-fluoro-7-(3-hydroxynaphthalen-1-yl)quinazolin-2-yl)amino)-15-methyl-16-oxo-3,6,9,12-tetraoxa-15-azaoctadecyl)oxy)isoxazol-5-yl)-3-methylbutanoyl)-4-hydroxy-N-((S)-1-(2-methoxy-4-(4-methylthiazol-5-yl)phenyl)ethyl)pyrrolidine-2-carboxamide], the maximal degradation (Dmax) was no more than 35%. Also, the “Percent Degradation” value (H2030, 0.3 μM) is listed as “C (Percent Degradation: C ≤ 35)”. For the setting “H2030, 1 μM”, the “Percent Degradation” value is reported as “C (Percent Degradation: C ≤ 35)”. The “Percent Degradation” value (H2030, 3 μM) is “C (Percent Degradation: C ≤ 35)”.

In the case of `C=CC(=O)N1CCN(c2nc(NCCCN(C)CCOCCOCCOCCOCC(=O)N[C@H](C(=O)N3C[C@H](O)C[C@H]3C(=O)N[C@@H](C)c3ccc(-c4scnc4C)cc3)C(C)(C)C)nc3c(F)c(-c4cc(O)cc5ccccc45)c(Cl)cc23)CC1` [compound 396, (2S,4R)-1-((2S)-21-((4-(4-acryloylpiperazin-1-yl)-6-chloro-8-fluoro-7-(3-hydroxynaphthalen-1-yl)quinazolin-2-yl)amino)-2-(tert-butyl)-18-methyl-4-oxo-6,9,12,15-tetraoxa-3,18-diazahenicosanoyl)-4-hydroxy-N-((S)-1-(4-(4-methylthiazol-5-yl)phenyl)ethyl)pyrrolidine-2-carboxamide], the Dmax was no more than 35%. Also, the “Percent Degradation” value (H2030, 0.3 μM) is “C (Percent Degradation: C ≤ 35)”. For the same molecule, the “Percent Degradation” value (H2030, 1 μM) is recorded as “C (Percent Degradation: C ≤ 35)”. The “Percent Degradation” value (H2030, 3 μM) was “C (Percent Degradation: C ≤ 35)”.

With `C=CC(=O)N1CCN(c2nc(O[C@H](C)CN3CCC(OCCOCC(=O)N[C@H](C(=O)N4C[C@H](O)C[C@H]4C(=O)N[C@@H](C)c4ccc(-c5scnc5C)cc4)C(C)(C)C)CC3)nc3c2CCN(c2cc(O)cc4ccccc24)C3)CC1` [compound 406, (2S,4R)-1-((S)-2-(2-(2-((1-((R)-2-((4-(4-acryloylpiperazin-1-yl)-7-(3-hydroxynaphthalen-1-yl)-5,6,7,8-tetrahydropyrido[3,4-d]pyrimidin-2-yl)oxy)propyl)piperidin-4-yl)oxy)ethoxy)acetamido)-3,3-dimethylbutanoyl)-4-hydroxy-N-((S)-1-(4-(4-methylthiazol-5-yl)phenyl)ethyl)pyrrolidine-2-carboxamide], the “Percent Degradation” value (H2030 cells, 0.3 μM) is recorded as “C (Percent Degradation: C ≤ 35)”; the “Percent Degradation” value (H2030 cells, 1 μM) is “C (Percent Degradation: C ≤ 35)”; the “Percent Degradation” value (H2030 cells, 3 μM) is recorded as “C (Percent Degradation: C ≤ 35)”.

In the case of `C=CC(=O)N1CCN(c2nc(O[C@H](C)CN3CCC(OCCOCCOCC(=O)N[C@H](C(=O)N4C[C@H](O)C[C@H]4C(=O)N[C@@H](C)c4ccc(-c5scnc5C)cc4)C(C)(C)C)CC3)nc3c2CCN(c2cc(O)cc4ccccc24)C3)CC1` [compound 407, (2S,4R)-1-((S)-2-(2-(2-(2-((1-((R)-2-((4-(4-acryloylpiperazin-1-yl)-7-(3-hydroxynaphthalen-1-yl)-5,6,7,8-tetrahydropyrido[3,4-d]pyrimidin-2-yl)oxy)propyl)piperidin-4-yl)oxy)ethoxy)ethoxy)acetamido)-3,3-dimethylbutanoyl)-4-hydroxy-N-((S)-1-(4-(4-methylthiazol-5-yl)phenyl)ethyl)pyrrolidine-2-carboxamide], the “Percent Degradation” value runs as follows: (H2030 cells, 0.3 μM) “C (Percent Degradation: C ≤ 35)”; (H2030 cells, 1 μM) “C (Percent Degradation: C ≤ 35)”; (H2030 cells, 3 μM) “C (Percent Degradation: C ≤ 35)”.

Turning to `C=CC(=O)N1CCN(c2nc(O[C@H](C)CN3CCC(OCCOCCOCCOCC(=O)N[C@H](C(=O)N4C[C@H](O)C[C@H]4C(=O)N[C@@H](C)c4ccc(-c5scnc5C)cc4)C(C)(C)C)CC3)nc3c2CCN(c2cc(O)cc4ccccc24)C3)CC1` [compound 408], the “Percent Degradation” value is, setting by setting: (H2030 cells, 0.3 μM) “C (Percent Degradation: C ≤ 35)”; (H2030 cells, 1 μM) “C (Percent Degradation: C ≤ 35)”; (H2030 cells, 3 μM) “C (Percent Degradation: C ≤ 35)”.

Turning to `C=CC(=O)N1CCN(c2nc(O[C@H](C)CN3CCC(OCCOCCOCCOCCOCCOCC(=O)N[C@H](C(=O)N4C[C@H](O)C[C@H]4C(=O)N[C@@H](C)c4ccc(-c5scnc5C)cc4)C(C)(C)C)CC3)nc3c2CCN(c2cc(O)cc4ccccc24)C3)CC1` [compound 410, (2S,4R)-1-((S)-20-((1-((R)-2-((4-(4-acryloylpiperazin-1-yl)-7-(3-hydroxynaphthalen-1-yl)-5,6,7,8-tetrahydropyrido[3,4-d]pyrimidin-2-yl)oxy)propyl)piperidin-4-yl)oxy)-2-(tert-butyl)-4-oxo-6,9,12,15,18-pentaoxa-3-azaicosanoyl)-4-hydroxy-N-((S)-1-(4-(4-methylthiazol-5-yl)phenyl)ethyl)pyrrolidine-2-carboxamide], the “Percent Degradation” value (H2030 cells, 0.3 μM) is “C (Percent Degradation: C ≤ 35)”; the “Percent Degradation” value (H2030 cells, 1 μM) is on record as “C (Percent Degradation: C ≤ 35)”; the “Percent Degradation” value (H2030 cells, 3 μM) is recorded as “C (Percent Degradation: C ≤ 35)”.

As usually defined, the Dmax is the greatest extent of degradation seen. A higher Dmax goes with deep degradation.
